This passage reports EC50 and IC50 results from patent US10669272B2, “Substituted naphthyridinone compounds useful as T cell activators” (BRISTOL-MYERS SQUIBB COMPANY, priority 2018, dated 2020).

Test [1] relates to Human venous whole blood. Briefly: Human whole blood IFN-γ assay.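 Note: blood from healthy donors exposed to compound for 1 h before stimulation with anti-CD3 and anti-CD28 at 1 µg/mL each, IFN-γ quantified in supernatant by AlphaLISA.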 In kind it is cell-based.
Description: Human Whole Blood IFN-γ Assay
Human venous whole blood (22.5 μL per well), obtained from healthy donors, was pre-treated with compounds for one hour at 37° C. in a humidified 95% air/5% CO2 incubator. The blood was stimulated with 2.5 μL anti-human CD3 and anti-CD28 mAb at a final concentration of 1 μg/mL each for 24 hours at 37° C. IFN-γ in the supernatants was measured using AlphLISA kit (Cat # AL217).
Test [2] deals with T1, human DGKα (Homo sapiens, UniProt P23743).
T1 construct: TVMV protease cleavage site (C); Hexa-His (C); made in house; host or cells: Sf9 insect cells (baculovirus, Bac-to-Bac)
T1 sequence (P23743 with tags, fused parts or gaps): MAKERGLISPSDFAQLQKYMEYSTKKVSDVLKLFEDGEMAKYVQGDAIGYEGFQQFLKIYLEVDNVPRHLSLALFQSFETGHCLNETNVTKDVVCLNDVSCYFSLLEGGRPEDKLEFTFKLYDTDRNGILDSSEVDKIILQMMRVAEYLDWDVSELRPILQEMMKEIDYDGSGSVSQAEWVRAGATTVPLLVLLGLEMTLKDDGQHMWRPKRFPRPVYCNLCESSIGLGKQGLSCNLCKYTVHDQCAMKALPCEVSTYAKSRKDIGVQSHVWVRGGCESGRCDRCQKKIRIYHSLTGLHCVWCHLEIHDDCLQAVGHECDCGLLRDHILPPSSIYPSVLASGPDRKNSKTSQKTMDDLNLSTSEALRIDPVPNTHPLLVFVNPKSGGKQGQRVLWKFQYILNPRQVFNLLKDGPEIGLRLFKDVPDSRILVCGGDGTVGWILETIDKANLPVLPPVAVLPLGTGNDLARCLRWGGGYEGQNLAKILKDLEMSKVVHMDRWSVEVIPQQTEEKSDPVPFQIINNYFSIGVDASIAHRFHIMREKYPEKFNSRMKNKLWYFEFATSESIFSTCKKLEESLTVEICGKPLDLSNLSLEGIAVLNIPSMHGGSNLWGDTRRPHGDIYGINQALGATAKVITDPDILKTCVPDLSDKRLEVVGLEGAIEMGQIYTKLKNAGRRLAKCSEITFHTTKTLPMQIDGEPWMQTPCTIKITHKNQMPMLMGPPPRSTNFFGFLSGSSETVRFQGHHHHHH
In words: DGKα LIPGLO assay (extruded liposome substrate), in vitro DGK inhibition. It counts as biochemical. The note with it: read-out: DGKa LIPGLO IC50.

The target in test [3] is T2, human DGKζ (Homo sapiens, UniProt Q13574).
T2 construct: TVMV protease cleavage site (C); Hexa-His (C); made in house; host or cells: Sf9 insect cells (baculovirus, Bac-to-Bac)
T2 sequence (Q13574 with tags, fused parts or gaps isoform Q13574-4): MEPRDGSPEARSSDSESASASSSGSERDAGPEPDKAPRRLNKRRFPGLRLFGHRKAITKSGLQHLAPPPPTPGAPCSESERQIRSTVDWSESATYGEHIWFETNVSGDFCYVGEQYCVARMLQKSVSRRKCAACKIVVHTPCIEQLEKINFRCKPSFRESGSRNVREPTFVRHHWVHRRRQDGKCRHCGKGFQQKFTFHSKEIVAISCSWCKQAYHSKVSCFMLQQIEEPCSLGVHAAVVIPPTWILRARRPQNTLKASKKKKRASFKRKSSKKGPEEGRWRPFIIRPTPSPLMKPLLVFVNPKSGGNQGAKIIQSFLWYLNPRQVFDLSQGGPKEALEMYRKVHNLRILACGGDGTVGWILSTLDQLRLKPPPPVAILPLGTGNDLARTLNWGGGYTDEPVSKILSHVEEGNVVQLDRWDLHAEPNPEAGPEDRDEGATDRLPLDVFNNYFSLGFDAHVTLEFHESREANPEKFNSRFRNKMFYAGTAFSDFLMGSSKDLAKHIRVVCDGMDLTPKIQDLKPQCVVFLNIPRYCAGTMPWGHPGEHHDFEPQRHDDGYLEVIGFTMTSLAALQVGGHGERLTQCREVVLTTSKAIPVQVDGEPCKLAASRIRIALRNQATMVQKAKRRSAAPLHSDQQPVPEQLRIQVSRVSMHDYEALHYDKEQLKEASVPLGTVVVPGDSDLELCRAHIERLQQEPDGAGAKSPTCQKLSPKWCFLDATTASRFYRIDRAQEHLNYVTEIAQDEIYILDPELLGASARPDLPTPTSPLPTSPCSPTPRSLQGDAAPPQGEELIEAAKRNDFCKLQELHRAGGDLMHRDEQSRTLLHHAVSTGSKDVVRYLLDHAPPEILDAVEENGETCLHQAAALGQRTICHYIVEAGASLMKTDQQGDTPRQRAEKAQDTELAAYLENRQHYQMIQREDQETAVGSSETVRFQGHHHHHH
Briefly: DGKζ LIPGLO assay (extruded liposome substrate), in vitro DGK inhibition. It counts as biochemical. As to conditions: read-out: DGKz LIPGLO IC50.

Setting [4] is: human whole blood; normalized to 3 μM reference compound with anti-CD3 plus anti-CD28 as 100% activation; read-out: INFg Whole Blood Normalized Agonist EC50.
Setting [5] is: Homo sapiens, 24 h, human whole blood; normalized to 3 μM reference compound with anti-CD3 plus anti-CD28 as 100% activation; read-out: INFg Whole Blood Normalized Agonist EC50.
[6] abbreviates: Homo sapiens, 24 h, human whole blood, anti-CD3 plus anti-CD28, 24 hours; 3 μM reference compound = 100% activation; read-out: INFg Whole Blood Normalized Agonist EC50.
Setting [7] is: human whole blood, anti-CD3 plus anti-CD28, 24 hours; 3 μM reference compound = 100% activation; read-out: INFg Whole Blood Normalized Agonist EC50.

Like-named read-outs stand apart in the source and are kept apart here.

What is called EC50 is the midpoint of the concentration-response curve. One may read the IC50 as the concentration that inhibits the measured activity by half. Regarding `Cc1oc(-c2cccc(F)c2)nc1CN1C[C@H](C)N(c2cc(=O)n(C)c3ccc(C#N)nc23)C[C@H]1C` [Example 1429], the EC50 in test [1] (setting [4]) was 20000 nM. Besides, in test [2] (liposome (LIPGLO) assay), the IC50 was 48000 nM. Take `CC(c1ccc(Cl)cc1F)N1C[C@H](C)N(c2cc(=O)n(C)c3ccc(C#N)nc23)C[C@H]1C` (some centres unmarked) [Example 1230]: the EC50 in test [1] (setting [5]) came to 100 nM. Moreover, the IC50 in test [3] (liposome (LIPGLO) assay) was determined as 160 nM. Regarding `C[C@@H]1CN(c2c(C#N)c(=O)n(C)c3ccc(C#N)nc23)CCN1Cc1ccccc1OC(F)(F)F` [Example 999], the EC50 in test [1] (setting [6]) came to 17000 nM. Moreover, the IC50 in test [2] (DGKα liposome (LIPGLO) assay) amounted to 270 nM. For the molecule `C[C@@H]1CN(c2c(F)c(=O)n(C)c3ccc(C#N)nc23)[C@@H](C)CN1C(c1ccc(Cl)cc1)c1ccc(OC(F)(F)F)cc1` (stereo partly drawn) [Example 323, 8-((2S,5R)-4-((4-chlorophenyl)(4-(trifluoromethoxy)phenyl)methyl)-2,5-dimethylpiperazin-1-yl)-7-fluoro-5-methyl-6-oxo-5,6-dihydro-1,5-naphthyridine-2-carbonitrile], the EC50 in test [1] (setting [5]) worked out at 5700 nM. For the same molecule, in test [2] (liposome (LIPGLO) assay), the IC50 stood at 2100 nM. With `CC(c1csc(C(F)(F)F)n1)N1C[C@H](C)N(c2cc(=O)n(C)c3ccc(C#N)nc23)C[C@H]1C` (single isomer, unassigned) [Example 1274], the EC50 in test [1] (setting [4]) is 3300 nM. Besides, in test [2] (liposome (LIPGLO) assay), the IC50 is 590 nM. Turning to `CC[C@@H]1CN(c2cc(=O)n(C)c3ccc(C#N)nc23)[C@@H](C)CN1C(c1ccc(Cl)cc1)c1ccc(F)cn1` (some centres unmarked) [Example 1110], the EC50 in test [1] (setting [4]) came out at 1300 nM. The IC50 in test [3] (liposome (LIPGLO) assay) was 160 nM. For `CC[C@H]1CN(C(c2ccc(F)cc2)c2ccccn2)[C@H](CC)CN1c1cc(=O)n(C)c2ccc(C#N)nc12` (single isomer, unassigned) [Example 1044] the same measures were 350 nM and 70 nM. Regarding `COc1ccc(C(c2ccc(F)cc2)N2C[C@H](C)N(c3c(C#N)c(=O)n(C)c4ccc(C#N)nc34)C[C@H]2C)nc1` (some centres unmarked) [Example 838], the EC50 in test [1] (setting [6]) was found to be 17000 nM. Besides, the IC50 in test [3] (DGKζ liposome (LIPGLO) assay) stood at 2100 nM. On to `C[C@@H]1CN(c2cc(=O)n(C)c3ccc(C#N)nc23)[C@@H](C)CN1C(c1ccc(F)cc1)c1nc(C2CCN(C)CC2)no1` (single isomer, unassigned) [Example 751], for which the EC50 in test [1] (setting [7]) was 4500 nM. The IC50 in test [3] (DGKζ liposome (LIPGLO) assay) turned out to be 17000 nM. For the molecule `C[C@@H]1CN(c2cc(=O)n(C)c3ccc(C#N)nc23)[C@@H](C)CN1C(c1ccc(F)cc1)c1ccccc1P(C)(C)=O` (single isomer, unassigned) [Example 1288], the EC50 in test [1] (setting [5]) was found to be 8800 nM. Further, the IC50 in test [2] (liposome (LIPGLO) assay) amounted to 290000 nM. As for `CCC(c1cc(Cl)cc2c1OCC2)N1C[C@H](C)N(c2cc(=O)n(C)c3ccc(C#N)nc23)C[C@H]1C` (single isomer, unassigned) [Example 357], the EC50 in test [1] (setting [4]) was 13000 nM. In test [3] (liposome (LIPGLO) assay), the IC50 was determined as 890 nM.

On to `CC(c1cc(OC(F)(F)F)ccc1F)N1C[C@H](C)N(c2cc(=O)n(C)c3ccc(C#N)nc23)C[C@H]1C` (some centres unmarked) [Example 1202], for which the half-maximal effective concentration (EC50) in test [1] (setting [4]) is 1300 nM. For the same molecule, the IC50 in test [2] (liposome (LIPGLO) assay) worked out at 2200 nM. Turning to `CC(c1ccc(OC(F)(F)F)cc1)N1C[C@H](C)N(c2cc(=O)n(C)c3ccc(C#N)nc23)C[C@H]1CN(C)C` (stereo partly drawn) [Example 1413, 8-((2S,5R)-5-((dimethylamino)methyl)-2-methyl-4-(1-(4-(trifluoromethoxy)phenyl)ethyl)piperazin-1-yl)-5-methyl-6-oxo-5,6-dihydro-1,5-naphthyridine-2-carbonitrile], the EC50 in test [1] (setting [5]) stood at 1400 nM. Also, in test [3] (liposome (LIPGLO) assay), the IC50 is 1800 nM. For the molecule `Cc1cccc(C(c2ccc(F)cc2)N2CCN(c3c(C#N)c(=O)n(C)c4ccc(C#N)nc34)C[C@H]2C)c1` (some centres unmarked) [Example 916], in test [1] (setting [7]), the EC50 is 1900 nM. For the same molecule, the IC50 in test [3] (DGKζ liposome (LIPGLO) assay) stood at 450 nM. Consider `C[C@@H]1CN(c2cc(=O)n(C)c3ccc(C#N)nc23)[C@@H](C)CN1C(c1ccc(F)cc1)c1ccccc1P(C)(C)=O` (stereo partly drawn) [Example 1287, 8-((2S,5R)-4-((2-(dimethylphosphoryl)phenyl)(4-fluorophenyl)methyl)-2,5-dimethylpiperazin-1-yl)-5-methyl-6-oxo-5,6-dihydro-1,5-naphthyridine-2-carbonitrile], for which the EC50 in test [1] (setting [5]) was found to be 8400 nM. Also, the IC50 in test [3] (liposome (LIPGLO) assay) turned out to be 3700 nM. In the same order, the values of `CC(c1ccc(C(F)(F)F)cn1)N1C[C@H](C)N(c2cc(=O)n(C)c3ccc(C#N)nc23)C[C@H]1C` (single isomer, unassigned) [Example 642] are 3300 nM and 190 nM. With `C[C@@H]1CN(c2c(F)c(=O)n(C)c3ccc(C#N)nc23)[C@@H](C)CN1C(c1ccc(F)cc1)c1ccc(C(F)(F)F)cc1` (stereo partly drawn) [Example 326, 7-fluoro-8-((2S,5R)-4-((4-fluorophenyl)(4-(trifluoromethyl)phenyl)methyl)-2,5-dimethylpiperazin-1-yl)-5-methyl-6-oxo-5,6-dihydro-1,5-naphthyridine-2-carbonitrile], in test [1] (setting [4]), the EC50 amounted to 20000 nM. In addition, the IC50 in test [3] (liposome (LIPGLO) assay) stood at 6500 nM. `CC[C@@H]1CN(c2cc(=O)n(C)c3ccc(C#N)nc23)[C@@H](C)CN1Cc1ccc(OC(F)(F)F)cc1F` [Example 1347]: in test [1] (setting [5]), the concentration for a half-maximal effect (EC50) came out at 730 nM. Moreover, in test [3] (liposome (LIPGLO) assay), the IC50 was determined as 170 nM. In the case of `Cc1noc(C(c2ccc(F)cc2)N2C[C@H](C)N(c3cc(=O)n(C)c4ccc(C#N)nc34)C[C@H]2C)n1` (some centres unmarked) [Example 746], the EC50 in test [1] (setting [7]) was determined as 960 nM. The IC50 in test [3] (DGKζ liposome (LIPGLO) assay) was 170 nM. `Cc1oc(-c2cccc(F)c2)nc1CN1C[C@H](C)N(c2cc(=O)n(C)c3ccc(C#N)nc23)C[C@H]1C` [Example 1430]: the EC50 in test [1] (setting [4]) was determined as 7000 nM. The half-maximal inhibitory concentration (IC50) in test [2] (liposome (LIPGLO) assay) turned out to be 21000 nM. On to `CC(c1cc(C(C)(C)C)on1)N1C[C@H](C)N(c2cc(=O)n(C)c3ccc(C#N)nc23)C[C@H]1C` (single isomer, unassigned) [Example 1284], for which, in test [1] (setting [4]), the EC50 worked out at 2800 nM. Moreover, in test [2] (liposome (LIPGLO) assay), the IC50 was found to be 760 nM. For `CC(c1ccc(OC(F)(F)F)cc1F)N1C[C@H](C)N(c2cc(=O)n(C)c3ccc(C#N)nc23)C[C@H]1C` (single isomer, unassigned) [Example 439], in test [1] (setting [4]), the EC50 was determined as 680 nM. Further, the IC50 in test [3] (liposome (LIPGLO) assay) is 320 nM.

`CC(c1ccc(C(F)(F)F)cc1)N1CCN(c2c(C#N)c(=O)n(C)c3ccc(C#N)nc23)C[C@H]1C` (single isomer, unassigned) [Example 961]: the EC50 in test [1] (setting [7]) came out at 20000 nM. Further, the IC50 in test [2] (DGKα liposome (LIPGLO) assay) worked out at 1500 nM.

Regarding `CC(c1ccc(P(C)(C)=O)cc1)N1C[C@H](C)N(c2c(C#N)c(=O)n(C)c3ccc(C#N)nc23)C[C@H]1C` (single isomer, unassigned) [Example 1294], in test [1] (setting [5]), the EC50 was 20000 nM. For the same molecule, the IC50 in test [3] (liposome (LIPGLO) assay) was 220000 nM. Take `COC[C@@H]1CN(c2cc(=O)n(C)c3ccc(C#N)nc23)[C@@H](C)CN1C(c1ccc(F)cc1)c1nc(C2CC2)cs1` (single isomer, unassigned) [Example 1395]: the EC50 in test [1] (setting [4]) is 190 nM. In addition, the IC50 in test [3] (liposome (LIPGLO) assay) was 70 nM.

With `C[C@@H]1CN(c2c(C#N)c(=O)n(C)c3ccc(C#N)nc23)CCN1C(c1ccccc1)c1ccc(Cl)cc1` (single isomer, unassigned) [Example 887], the EC50 in test [1] (read-out: INFg Whole Blood Normalized Agonist EC50; human whole blood, anti-CD3 plus anti-CD28, 24 hours; 3 μM reference compound = 100% activation) is 1600 nM. Consider `CCC(c1cc(OC(F)(F)F)ccc1F)N1C[C@H](C)N(c2cc(=O)n(C)c3ccc(C#N)nc23)C[C@H]1C` (some centres unmarked) [Example 1206], for which, in test [1] (setting [4]), the EC50 came to 2100 nM.

On to `COCc1ccc(C(C)N2C[C@H](C)N(c3cc(=O)n(C)c4ccc(C#N)nc34)C[C@H]2C)cc1` (some centres unmarked) [Example 1266], for which the EC50 in test [1] (setting [4]) was determined as 1400 nM.
